# In patent publication US20250034218A1, “ANTIMICROBIAL PEPTIDES” (BiomEdit, LLC, priority 2021, published 2025):
# Ends that are not written are not given here.
# Columns and labels:
# Giardia trophozoites = assay: Giardia trophozoite test tube assay, light microscopy; assay type: cell-based; conditions: AMP01 100 μM, FOR 5 μM
# Procedure: Test tube with a confluent layer of trophozoites is treated with AMP01 (100 μM). Light microscopy, counting of detached dead or alive (i.e. motile) trophozoites is then conducted. Formononetin (5 μM; FOR) is used for comparison as a positive control.
# The changes in morphology were still visible one day after the treatment and are depicted in FIG. 3 (photographs all taken at 100×). After 1 d, the trophozoites in the control tube (FIG. 3A) were fully alive (and overgrowing), as expected. […] The different sizes of the trophozoites can be noted by comparing the white circles. Similar effects were observed using cytotoxic anti-variant surface protein antibodies (Hemphil et al. 1996).
# Giardia = Giardia plate assay, % of control (Table 3); assay type: cell-based; conditions: plate G7
# Description: Data comparing AMP01 (wild type CAP 18 peptide (SEQ ID NO: 1) with various other agents is tabulated in Table 3. NTZ corresponds to nitazoxanide. ALB corresponds to albendazole.
# M. haemolytica = assay type: cell-based, Mannheimia haemolytica; conditions: plate assay, FIG. 2B
# Procedure: (§1) CAP18 peptide (wild type peptide also herein designated as AMP01) has application and utility for multiple indications in livestock, poultry & aqua species. […] Cap18 peptide is active against viruses of significance for the animal industry, such as PRRSV (PRRS, swine) (FIG. 2C). […] FIG. 3 depicts activity of CAP18 peptide (AMP01) against Giardia.
# (§2) Antimicrobial effect of CAP18 against BRD pathogens M. haemolytica and P. multocida was evaluated.
# P. mutlocida = assay type: cell-based, Pasteurella multocida
# Procedure: as §1, §2
# [1] = tested on: porcine reproductive and respiratory syndrome virus (PRRSV); assay: Inhibition of PRRS virus infection; assay type: cell-based; conditions: 1:2 and 1:4 diluted
# Procedure: Antibacterial peptide CAP18 was evaluated for activity inhibiting virus, particularly its antiviral effect on porcine reproductive and respiratory syndrome virus (PRRSV). Results are provided in Figure S. AMP01 polypeptide was evaluated at 1:2 and 1:4 diluted and shown to be effective.
# Eimeria = assay: Inhibition of Eimeria parasites; assay type: cell-based; conditions: Eimeria (Coccidiosis, poultry)
# Procedure: The effect of Cap 18 peptides and any variants thereof is tested on Eimeria. An exemplary study is provided with results depicted in FIG. 4. Three independent experiments were conducted with CAP18 peptides—designated Cap18a, Cap18b and Cap18c. The CAP18 peptides were compared with monensin as a positive control. Three independent experiments with monensin (designated Mona, Monb and Monc).
# E. coli DH5 alpha = assay type: cell-based, Escherichia coli
# Procedure: A MIC assay was set up using heat treated CAP18 variants in a 96-well plate. […] Appropriate controls (media only control, no CAP18 control) were included on the same plate. The plates were incubated at 37° C. for 24-48 hours and MIC for each variant was recorded. The experiment was repeated 3 times.
# E. coli DH5alpha [2] = assay type: cell-based, Escherichia coli; conditions: peptide treated with proteinase K at 37° C. before MIC assay
# Procedure: CAP18 peptide variants single mutants were evaluated for resistance to proteinase K. Peptides were subjected to proteinase K treatment and then assessed for bacterial cell killing (against E. coli) in a MIC assay.
# CAP18 variants were synthesized from GenScript, Inc, and solubilized in sterile purified water to a final concentration of 4 mg/ml. E. coli DH5alpha was grown overnight in 10 ml LB broth. Ten microliters of each CAP18 variant was treated with 2 μl of proteinase K (Qjagen, >600 mAU/ml) and incubated at 37° C. for 2 or 5 minutes in a PCR machine. The samples were then incubated at 98° C. for 5 minutes to inactivate proteinase K. An MIC assay was set up using proteinase K-treated CAP18 variants in a 96-well plate. Briefly, the peptides were serially diluted 2-fold in LB broth to achieve a final volume of 50 μl in each well and 50 μl of the E. coli DH5alpha culture adjusted to a concentration of 2×10^6 cells/ml was added into each well. Appropriate controls (media only control, no CAP18 control) were included on the same plate. The plates were incubated at 37° C. for 24-48 hours and MIC for each variant was recorded. The experiment was repeated 3 times.
# E. coli DH5alpha [3] = assay type: cell-based, Escherichia coli; conditions: peptide treated with trypsin at 37° C. before MIC assay
# Procedure: CAP18 peptide variants single mutants were evaluated for resistance to trypsin. Peptides were subjected to trypsin protease treatment and then assessed for bacterial cell killing (against E. coli) in a MIC assay.
# CAP18 variants were synthesized from GenScript, Inc, and solubilized in sterile purified water to a final concentration of 4 mg/ml. E. coli DH5alpha was grown overnight in 10 ml LB broth. Ten microliters of each CAP18 variant was treated with 2 μl (or 2 μl of the 10-fold diluted trypsin) of trypsin (0.25%, Sigma Aldrich) and incubated at 37° C. for 2 or 5 minutes in a PCR machine. The samples were then incubated at 98° C. for 5 minutes to inactivate trypsin. An MIC assay was set up using trypsin-treated CAP18 variants in a 96-well plate. Briefly, the peptides were serially diluted 2-fold in LB broth to achieve a final volume of 50 μl in each well and 50 μl of the E. coli DH5alpha culture adjusted to a concentration of 2×10^6 cells/ml was added into each well. Appropriate controls (media only control, no CAP18 control) were included on the same plate. The plates were incubated at 37° C. for 24-48 hours and MIC for each variant was recorded. The experiment was repeated 3 times.
# [4] = tested on: Methanobacterium bryantii; assay: In-vitro screening, growth of rumen methanogen; assay type: cell-based; conditions: FIGS. 10A and 10B; BES as positive control
# Description: BES, a known methanogen inhibitor shown in FIG. 10C, was used as a positive control.
# Y. ruckeri = conditions: injection before exposure to Y. ruckeri; compared to non-treated fish; cited from earlier work
# [5] = 90° C. for 30 minutes; cited from earlier work
sequence,measurement,setting,value
GLRKRLRKFRNKIKEKLKKIGQKIQGLLPKLAPRTDY [AMP01],detachment of trophozoites,Giardia trophozoites; after 1 h,nearly complete detachment
same,morphology and motility of detached trophozoites,Giardia trophozoites; after 1 h,"crumbled, shrunken and immotile"
same,state of trophozoites,Giardia trophozoites; after 1 d,"dead, shrunken and started to disintegrate"
same,% of control MV,Giardia; Conc 10 (uM or %),141.1%
same,% of control MV,Giardia; Conc 100 (uM or %),1.0%
same,MIC,M. haemolytica,4 to 8 µg/mL
same,MIC,P. mutlocida,4 to 8 µg/mL
same,antiviral effect on PRRSV,[1],effective
same,inhibiting activity of parasites,Eimeria,effective in inhibiting activity
same,"Thermotolerance at 90 for 5 minutes (MIC, ug/ml)",E. coli DH5 alpha,200 µg/mL
same,"Resistance to proteinase K (MIC, ug/ml)",E. coli DH5alpha [2],>400 µg/mL
same,"Resistance to trypsin (MIC, ug/ml)",E. coli DH5alpha [3],25 µg/mL
same,growth of rumen methanogen,[4],inhibits the growth
same,mortality,Y. ruckeri,lower mortality
same,antimicrobial activity after heat treatment,[5],retain full antimicrobial activity
